Test results reported in patent US12297194B2, “N2-phenylpyrimidine-2,4-diamine compounds, and preparation methods and methods of use thereof” (BRIDGE BIOTHERAPEUTICS, INC., priority 2021, dated 2025).

Key:
Assay type in all cases: cell-based, murine
[1] = molecular target: Ba/F3 EGFR Del19/T790M mutants (Homo sapiens, UniProt P00533, T790M, cells depend on it, form not given); assay: CellTiter-Glo cell viability, Ba/F3 EGFR Del19/T790M cells; settings: 72 hours, read-out: Ba/F3 EGFR mutant cell (IC50, nM) D/T
Ba/F3 EGFR Del19/T790M mutants, sequence (P00533 with tags, fused parts or gaps DEL746-750/T790M, form open): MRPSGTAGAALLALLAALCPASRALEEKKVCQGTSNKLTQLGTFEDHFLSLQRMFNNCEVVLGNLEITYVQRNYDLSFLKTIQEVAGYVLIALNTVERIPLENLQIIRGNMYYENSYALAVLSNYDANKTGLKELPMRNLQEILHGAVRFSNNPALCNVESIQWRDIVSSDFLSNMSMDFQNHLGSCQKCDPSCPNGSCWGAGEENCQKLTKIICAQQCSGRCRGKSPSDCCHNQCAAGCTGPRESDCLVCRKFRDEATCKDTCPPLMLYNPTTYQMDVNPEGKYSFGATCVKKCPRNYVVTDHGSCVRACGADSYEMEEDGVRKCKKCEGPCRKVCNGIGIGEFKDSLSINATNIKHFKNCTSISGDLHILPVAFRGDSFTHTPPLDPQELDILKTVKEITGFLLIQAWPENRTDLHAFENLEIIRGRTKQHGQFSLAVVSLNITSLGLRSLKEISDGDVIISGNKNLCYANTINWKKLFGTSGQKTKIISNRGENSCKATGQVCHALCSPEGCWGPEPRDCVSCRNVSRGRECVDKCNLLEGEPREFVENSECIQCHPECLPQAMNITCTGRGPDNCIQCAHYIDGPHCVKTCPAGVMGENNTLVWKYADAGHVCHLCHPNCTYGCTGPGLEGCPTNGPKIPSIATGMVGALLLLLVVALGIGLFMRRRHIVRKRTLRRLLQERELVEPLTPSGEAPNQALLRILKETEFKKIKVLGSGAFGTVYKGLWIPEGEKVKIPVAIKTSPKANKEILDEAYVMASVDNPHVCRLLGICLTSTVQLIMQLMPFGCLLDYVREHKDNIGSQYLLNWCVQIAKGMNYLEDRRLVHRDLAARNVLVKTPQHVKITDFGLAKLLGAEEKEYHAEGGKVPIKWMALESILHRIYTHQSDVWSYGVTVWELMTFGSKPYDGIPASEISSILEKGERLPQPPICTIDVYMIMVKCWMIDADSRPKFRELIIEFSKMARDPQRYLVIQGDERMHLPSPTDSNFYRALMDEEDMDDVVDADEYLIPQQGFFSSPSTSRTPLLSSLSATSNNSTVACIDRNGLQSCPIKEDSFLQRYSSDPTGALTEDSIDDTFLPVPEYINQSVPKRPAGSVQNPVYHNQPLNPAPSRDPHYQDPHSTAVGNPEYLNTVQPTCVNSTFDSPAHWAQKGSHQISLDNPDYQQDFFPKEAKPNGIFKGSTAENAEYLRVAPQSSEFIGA
Procedure, shortened: (§1)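 IC50 values derive from CellTiter-Glo luminescence measured after 72 hours of treatment of EGFR-dependent Ba/F3 cells, dosed at concentrations up to 2000 nM starting 24 hours after seeding.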

[2] = molecular target: Ba/F3 EGFR Del19/C797S mutants (Homo sapiens, UniProt P00533, C797S, cells depend on it, form not given); assay: CellTiter-Glo cell viability, Ba/F3 EGFR Del19/C797S cells; settings: 72 hours, read-out: Ba/F3 EGFR mutant cell (IC50, nM) D/C
Procedure, shortened: as §1

[3] = molecular target: Ba/F3 EGFR L858R/C797S mutants (Homo sapiens, UniProt P00533, C797S/L858R, cells depend on it); assay: CellTiter-Glo cell viability, Ba/F3 EGFR L858R/C797S cells; settings: 72 hours, read-out: Ba/F3 EGFR mutant cell (IC50, nM) L/C
Ba/F3 EGFR L858R/C797S mutants, sequence (P00533 whole entry C797S/L858R): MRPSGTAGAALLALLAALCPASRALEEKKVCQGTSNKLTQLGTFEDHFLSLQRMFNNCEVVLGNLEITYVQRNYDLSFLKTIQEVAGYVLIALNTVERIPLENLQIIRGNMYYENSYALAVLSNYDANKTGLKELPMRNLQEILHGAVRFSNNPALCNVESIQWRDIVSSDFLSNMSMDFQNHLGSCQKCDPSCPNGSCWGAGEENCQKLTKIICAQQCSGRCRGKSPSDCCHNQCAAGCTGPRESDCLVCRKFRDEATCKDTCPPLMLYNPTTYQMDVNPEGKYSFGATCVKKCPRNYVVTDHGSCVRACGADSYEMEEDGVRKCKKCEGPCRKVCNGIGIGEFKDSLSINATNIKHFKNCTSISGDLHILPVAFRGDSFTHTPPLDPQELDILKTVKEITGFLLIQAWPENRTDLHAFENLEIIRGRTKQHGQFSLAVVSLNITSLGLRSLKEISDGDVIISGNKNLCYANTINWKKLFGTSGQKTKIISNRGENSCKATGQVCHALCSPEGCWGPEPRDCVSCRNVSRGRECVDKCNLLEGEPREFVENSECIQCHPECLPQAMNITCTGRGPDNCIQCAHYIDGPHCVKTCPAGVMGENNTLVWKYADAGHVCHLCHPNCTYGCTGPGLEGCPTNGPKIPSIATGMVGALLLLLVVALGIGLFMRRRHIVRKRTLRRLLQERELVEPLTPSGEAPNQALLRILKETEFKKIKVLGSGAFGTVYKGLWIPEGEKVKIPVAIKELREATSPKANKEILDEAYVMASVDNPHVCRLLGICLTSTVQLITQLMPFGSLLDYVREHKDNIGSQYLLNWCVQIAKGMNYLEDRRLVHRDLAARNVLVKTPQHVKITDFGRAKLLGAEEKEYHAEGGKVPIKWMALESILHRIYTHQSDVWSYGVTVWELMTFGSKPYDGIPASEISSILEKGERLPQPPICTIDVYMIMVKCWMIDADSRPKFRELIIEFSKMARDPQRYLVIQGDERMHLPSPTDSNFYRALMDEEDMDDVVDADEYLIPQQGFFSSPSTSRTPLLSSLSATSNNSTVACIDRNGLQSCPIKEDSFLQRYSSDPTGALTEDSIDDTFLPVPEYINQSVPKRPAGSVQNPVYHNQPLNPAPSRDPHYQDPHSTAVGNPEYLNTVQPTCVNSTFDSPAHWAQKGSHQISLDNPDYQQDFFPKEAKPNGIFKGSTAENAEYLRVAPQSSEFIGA
Procedure, shortened: as §1

Ba/F3 EGFR Wild-type = Ba/F3 EGFR Wild-type (Homo sapiens, UniProt P00533); assay: CellTiter-Glo cell viability, Ba/F3 EGFR wild-type cells; settings: 72 hours, read-out: Ba/F3 EGFR mutant cell (IC50, nM) WT
Procedure, shortened: as §1

[4] = molecular target: Ba/F3 EGFR L858R/T790M/C797S mutants (Homo sapiens, UniProt P00533, T790M/C797S/L858R, cells depend on it); assay: CellTiter-Glo cell viability, Ba/F3 EGFR L858R/T790M/C797S cells; settings: 72 hours, read-out: Ba/F3 EGFR mutant cell (IC50, nM) L/T/C
Ba/F3 EGFR L858R/T790M/C797S mutants, sequence (P00533 whole entry T790M/C797S/L858R): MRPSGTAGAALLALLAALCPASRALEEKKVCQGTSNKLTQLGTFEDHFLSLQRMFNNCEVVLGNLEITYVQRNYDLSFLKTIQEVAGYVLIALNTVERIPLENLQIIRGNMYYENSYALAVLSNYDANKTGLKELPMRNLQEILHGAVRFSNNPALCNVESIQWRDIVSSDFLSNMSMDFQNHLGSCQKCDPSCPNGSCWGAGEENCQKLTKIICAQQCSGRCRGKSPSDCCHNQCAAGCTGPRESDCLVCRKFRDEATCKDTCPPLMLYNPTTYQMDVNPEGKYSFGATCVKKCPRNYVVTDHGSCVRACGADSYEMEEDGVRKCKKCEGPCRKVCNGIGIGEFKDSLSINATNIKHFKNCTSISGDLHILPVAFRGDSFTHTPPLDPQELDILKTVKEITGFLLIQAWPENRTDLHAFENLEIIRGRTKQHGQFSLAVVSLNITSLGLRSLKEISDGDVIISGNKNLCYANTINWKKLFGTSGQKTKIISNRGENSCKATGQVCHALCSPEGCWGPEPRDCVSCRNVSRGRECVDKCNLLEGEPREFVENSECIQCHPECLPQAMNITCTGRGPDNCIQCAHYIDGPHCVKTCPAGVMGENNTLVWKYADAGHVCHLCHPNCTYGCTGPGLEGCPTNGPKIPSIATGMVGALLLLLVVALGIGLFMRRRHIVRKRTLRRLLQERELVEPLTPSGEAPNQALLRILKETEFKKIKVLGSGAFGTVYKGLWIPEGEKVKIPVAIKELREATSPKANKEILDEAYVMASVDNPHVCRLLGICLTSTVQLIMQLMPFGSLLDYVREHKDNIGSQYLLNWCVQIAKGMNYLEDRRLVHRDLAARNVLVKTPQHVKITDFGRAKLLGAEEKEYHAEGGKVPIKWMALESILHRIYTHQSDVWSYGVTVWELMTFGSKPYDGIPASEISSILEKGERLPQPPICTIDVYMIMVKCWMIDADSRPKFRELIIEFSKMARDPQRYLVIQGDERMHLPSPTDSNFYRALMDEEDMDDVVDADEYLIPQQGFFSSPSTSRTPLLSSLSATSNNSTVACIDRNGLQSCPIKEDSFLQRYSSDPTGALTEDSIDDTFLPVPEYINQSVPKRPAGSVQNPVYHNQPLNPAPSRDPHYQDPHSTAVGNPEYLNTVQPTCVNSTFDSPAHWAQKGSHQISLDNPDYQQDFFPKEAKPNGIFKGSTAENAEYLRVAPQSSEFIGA
Procedure, shortened: as §1

[5] = molecular target: Ba/F3 EGFR Del19/T790M/C797S mutants (Homo sapiens, UniProt P00533, T790M/C797S, cells depend on it, form not given); assay: CellTiter-Glo cell viability, Ba/F3 EGFR Del19/T790M/C797S cells; settings: 72 hours, read-out: Ba/F3 EGFR mutant cell (IC50, nM) D/T/C
Ba/F3 EGFR Del19/T790M/C797S mutants, sequence (P00533 with tags, fused parts or gaps DEL746-750/T790M/C797S, form open): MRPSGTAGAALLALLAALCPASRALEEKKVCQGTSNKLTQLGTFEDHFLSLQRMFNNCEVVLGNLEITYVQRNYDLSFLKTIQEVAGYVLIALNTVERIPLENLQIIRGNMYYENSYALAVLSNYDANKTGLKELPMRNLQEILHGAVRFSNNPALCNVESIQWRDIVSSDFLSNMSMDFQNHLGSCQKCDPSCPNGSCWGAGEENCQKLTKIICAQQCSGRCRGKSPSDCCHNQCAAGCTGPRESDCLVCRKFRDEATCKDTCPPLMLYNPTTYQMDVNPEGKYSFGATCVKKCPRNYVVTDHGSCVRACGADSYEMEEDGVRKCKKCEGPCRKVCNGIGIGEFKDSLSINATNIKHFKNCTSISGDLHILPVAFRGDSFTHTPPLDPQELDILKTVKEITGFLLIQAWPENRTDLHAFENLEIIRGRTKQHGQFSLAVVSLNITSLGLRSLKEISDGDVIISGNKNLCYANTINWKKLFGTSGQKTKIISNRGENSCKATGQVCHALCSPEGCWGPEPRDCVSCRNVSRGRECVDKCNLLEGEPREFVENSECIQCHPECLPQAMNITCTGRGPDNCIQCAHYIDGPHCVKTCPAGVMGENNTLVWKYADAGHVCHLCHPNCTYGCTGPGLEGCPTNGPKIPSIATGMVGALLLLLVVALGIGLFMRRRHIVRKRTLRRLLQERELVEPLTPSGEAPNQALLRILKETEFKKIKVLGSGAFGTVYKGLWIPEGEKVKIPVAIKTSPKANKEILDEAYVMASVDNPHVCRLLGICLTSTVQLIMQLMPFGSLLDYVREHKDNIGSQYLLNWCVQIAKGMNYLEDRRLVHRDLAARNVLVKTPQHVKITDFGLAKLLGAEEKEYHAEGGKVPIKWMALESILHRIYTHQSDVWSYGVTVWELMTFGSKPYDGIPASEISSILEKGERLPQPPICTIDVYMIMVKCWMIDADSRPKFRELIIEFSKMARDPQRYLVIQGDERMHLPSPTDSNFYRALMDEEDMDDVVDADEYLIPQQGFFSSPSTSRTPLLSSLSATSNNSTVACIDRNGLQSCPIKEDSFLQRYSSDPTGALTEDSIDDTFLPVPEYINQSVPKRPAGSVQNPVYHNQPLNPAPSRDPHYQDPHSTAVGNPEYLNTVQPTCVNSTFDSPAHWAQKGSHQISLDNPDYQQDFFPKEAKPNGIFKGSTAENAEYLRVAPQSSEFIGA
Procedure, shortened: as §1

Structure (SMILES) | GI50 [1] [nM] | GI50 [2] [nM] | GI50 [3] [nM] | GI50 (Ba/F3 EGFR Wild-type) [nM] | GI50 [4] [nM] | GI50 [5] [nM]
CCc1cc(Nc2ncc(Br)c(Nc3cccc(OC)c3NS(C)(=O)=O)n2)c(OC)cc1N1CCC(N2CCN(C)CC2)CC1 [Example C22, N-(2-((5-bromo-2-((5-ethyl-2-methoxy-4-(4-(4-methylpiperazin-1-yl)piperidin-1-yl)phenyl)amino)pyrimidin-4-yl)amino)-6-methoxyphenyl)methanesulfonamide] | 4 | 5 | 36 | 738 | 25 | 2
CCCc1cc(Nc2ncc(Cl)c(Nc3ccc4c(c3NS(C)(=O)=O)OCCO4)n2)c(OC)cc1N1CCC(N(C)C)CC1 [Example C13, N-(6-((5-chloro-2-((4-(4-(dimethylamino)piperidin-1-yl)-2-methoxy-5-propylphenyl)amino)pyrimidin-4-yl)amino)-2,3-dihydrobenzo[b][1,4]dioxin-5-yl)methanesulfonamide] | 20 | 23 | 61 | 769 | 52 | 27
CCc1cc(Nc2ncc(Cl)c(Nc3ccc4nccnc4c3N(C)S(C)(=O)=O)n2)c(OC)cc1N1CC2(C1)CN(C(C)C)C2 [Example B27, N-(6-((5-chloro-2-((5-ethyl-4-(6-isopropyl-2,6-diazaspiro[3.3]heptan-2-yl)-2-methoxyphenyl)amino)pyrimidin-4-yl)amino)quinoxalin-5-yl)-N-methylmethanesulfonamide] | 25 | 18 | 35 | 359 | 40 | 5
CCc1cc(Nc2ncc(Cl)c(Nc3cccc(OC)c3NS(C)(=O)=O)n2)c(OC)cc1N1CCC(N2CCOCC2)CC1 [Example C20, N-(2-((5-chloro-2-((5-ethyl-2-methoxy-4-(4-morpholinopiperidin-1-yl)phenyl)amino)pyrimidin-4-yl)amino)-6-methoxyphenyl)methanesulfonamide] | 21 | 22 | 87 | 1160 | 148 | 21
COc1ccc(Nc2nc(Nc3cc(C)c(N4CCC(N5CCCC5)CC4)cc3OC)ncc2Cl)c(NS(C)(=O)=O)c1 [Example C11, N-(2-((5-chloro-2-((2-methoxy-5-methyl-4-(4-(pyrrolidin-1-yl)piperidin-1-yl)phenyl)amino)pyrimidin-4-yl)amino)-5-methoxyphenyl)methanesulfonamide] | 5 | 6 | 45 | 458 | 39 | 9
COc1cc(N2CCC(N3CCN(C)CC3)CC2)ccc1Nc1ncc(Cl)c(Nc2ccc3c(c2NS(C)(=O)=O)OCCO3)n1 [Example C9, N-(6-((5-chloro-2-((2-methoxy-4-(4-(4-methylpiperazin-1-yl)piperidin-1-yl)phenyl)amino)pyrimidin-4-yl)amino)-2,3-dihydrobenzo[b][1,4]dioxin-5-yl)methanesulfonamide] | 152 | 281 | 345 | 755 | 356 | 260
COc1cc(N2CCC(N3CCN(C)CC3)CC2)c(C)cc1Nc1ncc(Cl)c(Nc2cccc(OC)c2NS(C)(=O)=O)n1 [Example C24, N-(2-((5-chloro-2-((2-methoxy-5-methyl-4-(4-(4-methylpiperazin-1-yl)piperidin-1-yl)phenyl)amino)pyrimidin-4-yl)amino)-6-methoxyphenyl)methanesulfonamide] | 14 | 6 | 41 | 605 | 83 | 7
CCc1cc(Nc2ncc(Br)c(Nc3ccc4nccnc4c3N(C)S(C)(=O)=O)n2)c(OC)cc1N1CC2(C1)CN(C(C)C)C2 [Example B29, N-(6-((5-bromo-2-((5-ethyl-4-(6-isopropyl-2,6-diazaspiro[3.3]heptan-2-yl)-2-methoxyphenyl)amino)pyrimidin-4-yl)amino)quinoxalin-5-yl)-N-methylmethanesulfonamide] | 9 | 14 | 27 | 317 | 68 | 2
CCc1cc(Nc2ncc(Cl)c(Nc3ccc4nccnc4c3NS(C)(=O)=O)n2)c(OC)cc1N1CCC(N2CC3CCC2CN3C)CC1 (stereo not drawn) [Example A45, N-(6-((5-chloro-2-((5-ethyl-2-methoxy-4-(4-(5-methyl-2,5-diazabicyclo[2.2.2]octan-2-yl)piperidin-1-yl)phenyl)amino)pyrimidin-4-yl)amino)quinoxalin-5-yl)methanesulfonamide] | 9 | 10 | 103 | 734 | 71 | 7
COc1cc(C2CCNCC2)c(C)cc1Nc1ncc(Br)c(Nc2ccc3nccnc3c2NS(C)(=O)=O)n1 [Example B11, N-(6-((5-bromo-2-((2-methoxy-5-methyl-4-(piperidin-4-yl)phenyl)amino)pyrimidin-4-yl)amino)quinoxalin-5-yl)methanesulfonamide] | 443 | 583 | 781 | 1270 | 264 | 725
COc1cc(C2CCNCC2)ccc1Nc1ncc(C2CC2)c(Nc2ccc3nccnc3c2NS(C)(=O)=O)n1 [Example B20, N-(6-((5-cyclopropyl-2-((2-methoxy-4-(piperidin-4-yl)phenyl)amino)pyrimidin-4-yl)amino)quinoxalin-5-yl)methanesulfonamide] | 1810 | 697 | 1140 | > 2000 | 1850 | 758
COc1cc(C2CCN(C)CC2)ccc1Nc1ncc(Cl)c(Nc2ccc3nccnc3c2NS(C)(=O)=O)n1 [Example B23, N-(6-((5-chloro-2-((2-methoxy-4-(1-methylpiperidin-4-yl)phenyl)amino)pyrimidin-4-yl)amino)quinoxalin-5-yl)methanesulfonamide] | 154 | 100 | 302 | 868 | 354 | 112
COc1cc(C2CCNCC2)ccc1Nc1ncc(Cl)c(Nc2ccc3nccnc3c2NS(C)(=O)=O)n1 [Example B15, N-(6-((5-chloro-2-((2-methoxy-4-(piperidin-4-yl)phenyl)amino)pyrimidin-4-yl)amino)quinoxalin-5-yl)methanesulfonamide] | 1310 | 581 | 1540 | > 2000 | 2140 | 746
COc1cc(N2CCC(N3CCCC3)CC2)c(C)cc1Nc1ncc(Cl)c(Nc2cccc(OC)c2NS(C)(=O)=O)n1 [Example C10, N-(2-((5-chloro-2-((2-methoxy-5-methyl-4-(4-(pyrrolidin-1-yl)piperidin-1-yl)phenyl)amino)pyrimidin-4-yl)amino)-6-methoxyphenyl)methanesulfonamide] | 6 | 9 | 61 | 404 | 45 | 9
